# Where two headings read alike, the source gives them in different places.
# Key:
# Format in all cases: biochemical
# [1] = biological target: Pim1 kinase (Homo sapiens, UniProt P11309); experiment: Pim1 ATP depletion assay;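 further: Luciferase-luciferin luminescence readout of residual ATP after PIM1 transfers phosphate to a peptide substrate, 40 µM ATP added, reaction run to roughly half ATP consumption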
# [2] = biological target: Pim2 kinase (Homo sapiens, UniProt Q9P1W9); experiment: Pim2 ATP depletion assay; conditions: read-out: IC50 (μM) PIM2;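 further: Luciferase-based luminescent readout of ATP remaining after PIM2 phosphorylates a BAD peptide, final 5 nM enzyme, 4 µM ATP, 10 µM peptide, 2.5% DMSO, run to roughly half ATP consumption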
# [3] = biological target: Pim3 kinase (Homo sapiens, UniProt Q86V86); experiment: Pim3 ATP depletion assay; conditions: read-out: IC50 (μM) PIM3
# [4] = Pim1 ATP depletion assay, read-out: IC50 (μM) PIM1
# Chain of Pim2 kinase (Q9P1W9 whole entry): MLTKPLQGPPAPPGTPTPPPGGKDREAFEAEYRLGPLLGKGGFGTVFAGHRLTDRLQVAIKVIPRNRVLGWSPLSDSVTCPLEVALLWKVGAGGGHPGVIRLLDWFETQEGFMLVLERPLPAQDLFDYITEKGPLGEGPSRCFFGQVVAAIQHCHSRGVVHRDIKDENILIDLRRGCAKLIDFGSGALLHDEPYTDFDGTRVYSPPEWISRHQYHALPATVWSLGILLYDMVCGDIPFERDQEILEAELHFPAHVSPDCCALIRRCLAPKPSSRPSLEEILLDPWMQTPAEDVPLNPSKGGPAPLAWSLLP
# Chain of Pim1 kinase (P11309 whole entry): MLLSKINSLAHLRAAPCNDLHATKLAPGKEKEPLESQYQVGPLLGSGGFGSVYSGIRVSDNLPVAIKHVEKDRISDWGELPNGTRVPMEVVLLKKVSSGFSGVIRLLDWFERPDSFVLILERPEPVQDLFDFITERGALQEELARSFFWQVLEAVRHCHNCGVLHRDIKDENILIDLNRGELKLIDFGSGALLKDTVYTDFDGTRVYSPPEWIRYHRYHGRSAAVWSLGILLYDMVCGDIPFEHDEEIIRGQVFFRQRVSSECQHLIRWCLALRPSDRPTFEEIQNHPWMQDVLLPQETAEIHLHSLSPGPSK
SMILES,IC50 [1],IC50 [2],IC50 [3],"IC50 [1, 4]"
"Nc1ncc(-c2cccc(C(=O)N3CCOCC3)c2)nc1C(=O)Nc1ccccc1N1CCNCC1 [Example 398, 3-amino-6-[3-(morpholine-4-carbonyl)-phenyl]-pyrazine-2-carboxylic acid (2-piperazin-1-yl-phenyl)-amide]",,10 to 25 µM,1 to 10 µM,1 to 10 µM
"N[C@H]1CCCN(c2ccncc2NC(=O)c2ccc(F)c(-c3ccccc3F)n2)C1 [Example 444, 5-Fluoro-6-(2-fluoro-phenyl)-pyridine-2-carboxylic acid (3-amino-3,4,5,6-tetrahydro-2H-[1,4′]bipyridinyl-3′-yl)-amide]",,< 1 µM,< 1 µM,< 1 µM
"Nc1ccc(-c2ccc(-c3cccs3)s2)nc1C(=O)Nc1cnccc1N1CCC[C@H](N)C1 [Example 446, 3-Amino-6-[2,2′]bithiophenyl-5-yl-pyridine-2-carboxylic acid (3-amino-3,4,5,6-tetrahydro-2H-[1,4′]bipyridinyl-3′-yl)-amide]",,< 1 µM,< 1 µM,< 1 µM
"Cc1ccsc1-c1ccc(N)c(C(=O)Nc2cnccc2N2CCC[C@H](N)C2)n1 [Example 448, 3-Amino-6-(3-methyl-thiophen-2-yl)-pyridine-2-carboxylic acid (3-amino-3,4,5,6-tetrahydro-2H-[1,4′]bipyridinyl-3′-yl)-amide]",,< 1 µM,< 1 µM,< 1 µM
"Nc1ccc(-c2ccsc2)nc1C(=O)Nc1cnccc1N1CCC[C@H](N)C1 [Example 449, 3-Amino-6-thiophen-3-yl-pyridine-2-carboxylic acid (3-amino-3,4,5,6-tetrahydro-2H-[1,4′]bipyridinyl-3′-yl)-amide]",,< 1 µM,< 1 µM,< 1 µM
"Nc1ccc(-c2ccc(Cl)s2)nc1C(=O)Nc1cnccc1N1CCC[C@H](N)C1 [Example 450, 3-Amino-6-(5-chloro-thiophen-2-yl)-pyridine-2-carboxylic acid (3-amino-3,4,5,6-tetrahydro-2H-[1,4′]bipyridinyl-3′-yl)-amide]",,< 1 µM,< 1 µM,< 1 µM
"Cc1csc(-c2ccc(N)c(C(=O)Nc3cnccc3N3CCC[C@H](N)C3)n2)c1 [Example 451, 3-Amino-6-(4-methyl-thiophen-2-yl)-pyridine-2-carboxylic acid (3-amino-3,4,5,6-tetrahydro-2H-[1,4′]bipyridinyl-3′-yl)-amide]",,< 1 µM,< 1 µM,< 1 µM
"CCc1cccc(-c2ccc(N)c(C(=O)Nc3cnccc3N3CCC[C@H](N)C3)n2)c1 [Example 452, 3-Amino-6-(3-ethyl-phenyl)-pyridine-2-carboxylic acid (3-amino-3,4,5,6-tetrahydro-2H-[1,4′]bipyridinyl-3′-yl)-amide]",,< 1 µM,< 1 µM,< 1 µM
"CC(C)NC(=O)c1ccc(F)c(-c2cccc(C(=O)Nc3cnccc3N3CCC[C@H](N)C3)n2)c1 [Example 453, 6-(2-Fluoro-5-isopropylcarbamoyl-phenyl)-pyridine-2-carboxylic acid (3-amino-3,4,5,6-tetrahydro-2H-[1,4′]bipyridinyl-3′-yl)-amide]",,< 1 µM,< 1 µM,< 1 µM
"CC(C)c1cccc(-c2ccc(N)c(C(=O)Nc3cnccc3N3CCC[C@H](N)C3)n2)c1 [Example 456, 3-Amino-6-(3-isopropyl-phenyl)-pyridine-2-carboxylic acid (3-amino-3,4,5,6-tetrahydro-2H-[1,4′]bipyridinyl-3′-yl)-amide]",,< 1 µM,< 1 µM,< 1 µM
"N#CCc1cccc(-c2ccc(N)c(C(=O)Nc3cnccc3N3CCC[C@H](N)C3)n2)c1 [Example 457, 3-Amino-6-(3-cyanomethyl-phenyl)-pyridine-2-carboxylic acid (3-amino-3,4,5,6-tetrahydro-2H-[1,4′]bipyridinyl-3′-yl)-amide]",,< 1 µM,< 1 µM,< 1 µM
"Nc1ccc(-c2cccc(-c3ccccc3)c2)nc1C(=O)Nc1cnccc1N1CCC[C@H](N)C1 [Example 458, 3-Amino-6-biphenyl-3-yl-pyridine-2-carboxylic acid (3-amino-3,4,5,6-tetrahydro-2H-[1,4′]bipyridinyl-3′-yl)-amide]",,< 1 µM,< 1 µM,< 1 µM
"Nc1ccc(-c2cccc(Br)c2)nc1C(=O)Nc1cnccc1N1CCC[C@H](N)C1 [Example 459, 3-Amino-6-(3-bromo-phenyl)-pyridine-2-carboxylic acid (3-amino-3,4,5,6-tetrahydro-2H-[1,4′]bipyridinyl-3′-yl)-amide]",,< 1 µM,< 1 µM,< 1 µM

# Results, then the compound that gave them:
IC50 [1],IC50 [2],IC50 [3],"IC50 [1, 4]",SMILES
< 1 µM,< 1 µM,< 1 µM,,Nc1ccc(-c2ccccc2C(F)(F)F)nc1C(=O)Nc1cnccc1N1CCC[C@H](N)C1 [Example 336]
,< 1 µM,< 1 µM,< 1 µM,"Cc1ccccc1-c1ccc(N)c(C(=O)Nc2cnccc2N2CCC[C@H](N)C2)n1 [Example 338, 3-amino-6-o-tolyl-pyridine-2-carboxylic acid ((S)-3-amino-3,4,5,6-tetrahydro-2H-[1,4′]bi-pyridinyl-3′-yl)-amide]"
,< 1 µM,< 1 µM,< 1 µM,"Nc1ccc(-c2cncnc2)nc1C(=O)Nc1cnccc1N1CCC[C@H](N)C1 [Example 407, 3-amino-6-pyrimidin-5-yl-pyridine-2-carboxylic acid ((S)-3-amino-3,4,5,6-tetrahydro-2H-[1,4′]bipyridinyl-3′-yl)-amide]"
,< 1 µM,< 1 µM,< 1 µM,"Nc1ccc(-c2ccc(F)nc2N)nc1C(=O)Nc1cnccc1N1CCC[C@H](N)C1 [Example 408, 5,2′-diamino-6′-fluoro-[2,3′]bi-pyridinyl-6-carboxylic acid ((S)-3-amino-3,4,5,6-tetrahydro-2H-[1,4′]bipyridinyl-3′-yl)-amide]"
,< 1 µM,< 1 µM,< 1 µM,"Cc1nc(N)ncc1-c1ccc(N)c(C(=O)Nc2cnccc2N2CCC[C@H](N)C2)n1 [Example 409, 3-amino-6-(2-amino-4-methyl-pyrimidin-5-yl)-pyridine-2-carboxylic acid ((S)-3-amino-3,4,5,6-tetrahydro-2H-[1,4′]bi-pyridinyl-3′-yl)-amide]"
,< 1 µM,< 1 µM,< 1 µM,"COc1cc(-c2ccc(N)c(C(=O)Nc3cnccc3N3CCC[C@H](N)C3)n2)cnc1N [Example 416, 5,6′-diamino-5′-methoxy-[2,3′]bi-pyridinyl-6-carboxylic acid ((S)-3-amino-3,4,5,6-tetrahydro-2H-[1,4′]bipyridinyl-3′-yl)-amide]"
,< 1 µM,< 1 µM,< 1 µM,"Nc1ncc(-c2ccc(N)c(C(=O)Nc3cnccc3N3CCC[C@H](N)C3)n2)c(N)n1 [Example 417, 3-amino-6-(2,4-diamino-pyrimidin-5-yl)-pyridine-2-carboxylic acid ((S)-3-amino-3,4,5,6-tetrahydro-2H-[1,4′]bi-pyridinyl-3′-yl)-amide]"
,< 1 µM,< 1 µM,< 1 µM,"Nc1ccc(-c2ccc(Cl)cc2F)nc1C(=O)Nc1cnccc1N1CCC[C@H](N)C1 [Example 420, 3-amino-6-(4-chloro-2-fluoro-phenyl)-pyridine-2-carboxylic acid ((S)-3-amino-3,4,5,6-tetra-hydro-2H-[1,4′]bipyridinyl-3′-yl)-amide]"
